From patent publication US20160237059A1, “HETEROCYCLIC SUBSTITUTED TRIFLUOROMETHYL PYRIMIDINONES AND THEIR USE” (BAYER PHARMA AKTIENGESELLSCHAFT, priority 2013, published 2016) come the findings set out here.

In assay [1] the target is T1, human CCR2 (Homo sapiens, UniProt P41597).
T1 construct: host or cells: Chem-1 cell line
T1 sequence (P41597 1-360 isoform P41597-2): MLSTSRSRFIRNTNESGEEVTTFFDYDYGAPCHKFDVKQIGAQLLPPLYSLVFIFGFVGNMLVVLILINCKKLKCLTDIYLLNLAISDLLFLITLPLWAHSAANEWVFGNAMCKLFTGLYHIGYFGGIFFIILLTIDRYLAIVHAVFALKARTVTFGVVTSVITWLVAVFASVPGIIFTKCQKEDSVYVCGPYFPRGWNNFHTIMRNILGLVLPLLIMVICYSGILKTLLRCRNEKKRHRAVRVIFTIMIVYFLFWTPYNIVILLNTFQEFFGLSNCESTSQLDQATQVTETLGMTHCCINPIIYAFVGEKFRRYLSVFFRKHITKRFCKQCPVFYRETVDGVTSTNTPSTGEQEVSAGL
Nature of the assay: Functional Ca2+ release test (B-1). Type of assay: cell-based. Particulars: Chem-1 cell line transfected with human CCR2; 50% inhibition of the MCP-1 effect, MCP-1 at EC50 (about 5 nM); in some cases means of several determinations. Put shortly:
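Inhibition of MCP-1-evoked Ca2+ release was measured over 120 s by fluorescence imaging in Fluo-4-loaded, human CCR2-transfected Chem-1 cells. Compounds, tested in 10-point 1:3.16 series, were added 10 min before agonist at its EC50 (typically about 5 nM). IC50 values were obtained by 4-parameter logistic fitting.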

For assay [2], the target named is T2, murine CCR2 (Mus musculus, UniProt P51683).
T2 construct: host or cells: U2OS β-arrestin cell line
T2 sequence (P51683 whole entry): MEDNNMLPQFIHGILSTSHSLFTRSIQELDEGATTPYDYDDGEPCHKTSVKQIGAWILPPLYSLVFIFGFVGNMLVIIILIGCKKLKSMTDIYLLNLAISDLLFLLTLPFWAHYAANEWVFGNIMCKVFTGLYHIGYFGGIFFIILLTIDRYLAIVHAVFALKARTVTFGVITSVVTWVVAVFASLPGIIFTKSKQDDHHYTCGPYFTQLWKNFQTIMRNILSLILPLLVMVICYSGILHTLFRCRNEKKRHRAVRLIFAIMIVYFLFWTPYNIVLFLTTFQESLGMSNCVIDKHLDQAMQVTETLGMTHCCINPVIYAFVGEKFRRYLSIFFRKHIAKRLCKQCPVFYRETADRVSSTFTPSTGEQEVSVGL
In words: Functional β-arrestin recruiting test with murine MCP-1 (B-2b). The settings on record: U2OS β-arrestin cell line transfected with murine CCR2; agonist murine MCP-1; in some cases means of several determinations. Type of assay: cell-based. An outline of the steps: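 In a PathHunter β-galactosidase complementation assay, U2OS cells expressing murine CCR2 were preincubated 10 min with compound (10-point, 1:3.16 dilutions), then challenged with murine MCP-1 at its predetermined EC50 for 90 min at 37 °C. Luminescence was read after 60 min, and IC50 was fitted with a 4-parameter Hill function.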
For orientation: Activated receptors often draw arrestin, which recruitment assays turn into a signal.

The IC50 is the concentration that gives 50% inhibition. A lower IC50 goes with inhibition by little substance. Regarding `CCCc1cc(-c2nc(C(F)(F)F)c(Oc3ccc(Cl)c(C(F)(F)F)c3)c(=O)[nH]2)no1` [Example 216], the concentration for half-maximal inhibition (IC50) is 4.6 nM in assay [1] and 1320 nM in assay [2].
The like results for `CCc1cc(-c2nc(C(F)(F)F)c(Oc3ccc(Cl)c(C(F)(F)F)c3)c(=O)[nH]2)no1` [Example 217] were, in that order, 1.8 nM and 874 nM.
The matching figures for `CCc1cc(-c2nc(C(F)(F)F)c(Oc3ccc(Cl)c(Cl)c3)c(=O)[nH]2)no1` [Example 218]: 3.9 nM and 584 nM.
The like results for `O=c1[nH]c(-c2cc(C3CC3)on2)nc(C(F)(F)F)c1Oc1ccc(Cl)c(Cl)c1` [Example 219] were, in that order, 7.2 nM and 1040 nM.
As for `O=c1[nH]c(-c2cc(C3CC3)on2)nc(C(F)(F)F)c1Oc1ccc(Cl)c(C(F)(F)F)c1` [Example 220], the IC50 was 3.5 nM in assay [1] and 775 nM in assay [2].
The matching figures for `COCc1cc(-c2nc(C(F)(F)F)c(Oc3ccc(Cl)c(C(F)(F)F)c3)c(=O)[nH]2)no1` [Example 221]: 1.3 nM and 447 nM.
The like results for `COCc1cc(-c2nc(C(F)(F)F)c(Oc3ccc(Cl)c(Cl)c3)c(=O)[nH]2)no1` [Example 222] were, in that order, 6.5 nM and 551 nM.
The like results for `Cc1cc(Oc2c(C(F)(F)F)nc(-c3cc[nH]n3)[nH]c2=O)ccc1Cl` [Example 223] were, in that order, 0.1 nM and 21 nM.
As for `Cc1ccc(Oc2c(C(F)(F)F)nc(-c3cc[nH]n3)[nH]c2=O)cc1Cl` [Example 224], the figures for the IC50 in assay [1] and in assay [2] were 0.3 nM and 47 nM, respectively.
The like results for `Cn1ccc(-c2nc(C(F)(F)F)c(Oc3ccc(Cl)c(Cl)c3)c(=O)[nH]2)n1` [Example 225] were, in that order, 0.3 nM and 150 nM.
The like results for `Cn1ccc(-c2nc(C(F)(F)F)c(Oc3ccc(Cl)c(C(F)(F)F)c3)c(=O)[nH]2)n1` [Example 226] were, in that order, 0.5 nM and 87 nM.
As for `O=c1[nH]c(-c2nsc(Cl)c2Cl)nc(C(F)(F)F)c1Oc1ccc(Cl)c(Cl)c1` [Example 227], the figures for the IC50 in assay [1] and in assay [2] were 6.4 nM and 164 nM, respectively.
The like results for `O=c1[nH]c(-c2nsc(Cl)c2Cl)nc(C(F)(F)F)c1Oc1ccc(Cl)c(C(F)(F)F)c1` [Example 228] were, in that order, 5.3 nM and 227 nM.
The matching figures for `O=c1[nH]c(-c2ccon2)nc(C(F)(F)F)c1Oc1ccc(Cl)c(Cl)c1` [Example 229]: 0.5 nM and 44 nM.
Regarding `O=c1[nH]c(-c2ccon2)nc(C(F)(F)F)c1Oc1ccc(Cl)c(C(F)(F)F)c1` [Example 230], the values for the IC50 in assay [1] and in assay [2] were 0.4 nM and 44 nM, respectively.
The matching figures for `Cc1cc(-c2nc(C(F)(F)F)c(Oc3ccc(Cl)c(Cl)c3)c(=O)[nH]2)no1` [Example 231]: 0.1 nM and 249 nM.
The like results for `Cc1cc(-c2nc(C(F)(F)F)c(Oc3ccc(Cl)c(C(F)(F)F)c3)c(=O)[nH]2)no1` [Example 232] were, in that order, 0.3 nM and 170 nM.
As for `O=c1[nH]c(-c2ccsn2)nc(C(F)(F)F)c1Oc1ccc(Cl)c(Cl)c1` [Example 233], the IC50 in assay [1] was found to be 0.2 nM; in assay [2], 43 nM.
The like results for `O=c1[nH]c(-c2ccsn2)nc(C(F)(F)F)c1Oc1ccc(Cl)c(C(F)(F)F)c1` [Example 234] were, in that order, 0.3 nM and 27 nM.
The matching figures for `COc1nn(C)cc1-c1nc(C(F)(F)F)c(Oc2ccc(Cl)c(C(F)(F)F)c2)c(=O)[nH]1` [Example 235]: 20 nM and 796 nM.
The matching figures for `COc1nn(C)cc1-c1nc(C(F)(F)F)c(Oc2ccc(Cl)c(Cl)c2)c(=O)[nH]1` [Example 236]: 692 nM and 720 nM.
For `COc1csnc1-c1nc(C(F)(F)F)c(Oc2ccc(Cl)c(Cl)c2)c(=O)[nH]1` [Example 237], the half-maximal inhibitory concentration (IC50) worked out at 1 nM in assay [1] and 80 nM in assay [2].
